In patent US20090305886A1, “Pesticidal Mixtures” (BASF SE, priority 2006, published 2009):

Tests used:
Assay type in all cases: in vivo
[1] = test system: Tobacco Budworm (Heliothis virescens); assay: Tobacco Budworm (Heliothis virescens) test protocol no. II
Procedure: Tobacco Budworm (Heliothis virescens)—Test Protocol no. II
(§1) The active compounds are formulated in 1:3 DMSO:water. 15 to 25 eggs are placed into microtiterplates filled with diet. The eggs are sprayed with 10 μl of the test solution, the plates are sealed with pierced foils and kept at 27-29° C. and 75-85% humidity under fluorescent light for 6 days. Mortality is assessed on the basis of the agility and of comparative feeding of the hatched larvae. Tests are replicated 2 times.
(§2) The presence of a synergistic effect in terms of percent control, between the two mixing partners (X and Y) is calculated using the Colby equation (Colby, S. R., 1967, Calculating Synergistic and Antagonistic Responses in Herbicide Combinations, Weeds, 15, 20-22):
(§3) When the observed combined control effect is greater than the expected combined control effect (E), then the combined effect is synergistic.

[2] = test system: Boll Weevil (Anthonomus grandis); assay: Boll Weevil (Anthonomus grandis) egg microtiterplate test
Procedure: Boll Weevil (Anthonomus grandis)
The active compounds are formulated in 1:3 DMSO:water. 10 to 15 eggs are placed into microtiterplates filled with 2% agar-agar in water and 300 ppm formaline. The eggs are sprayed with 20 μl of the test solution, the plates are sealed with pierced foils and kept at 24-26° C. and 75-85% humidity with a day/night cycle for 3 to 5 days. Mortality is assessed on the basis of the remaining unhatched eggs or larvae on the agar surface and/or quantity and depth of the digging channels caused by the hatched larvae. Tests are replicated 2 times.
as §2, §3

[3] = test system: Mediterranean Fruitfly (Ceratitis capitata); assay: Mediterranean Fruitfly (Ceratitis capitata) egg microtiterplate test
Procedure: Mediterranean Fruitfly (Ceratitis capitata)
as §1, with “50” for “15”, “80” for “25”, “0.5% agar-agar and 14% diet in water.” for “diet.”, “5” for “10”, “agility” for “agility and of comparative feeding”
as §2, §3

[4] = test system: Vetch Aphid (Megoura viciae); assay: Vetch Aphid (Megoura viciae) leaf disk microtiterplate test
Procedure: Vetch Aphid (Megoura viciae)
The active compounds are formulated in 1:3 DMSO:water. Bean leaf disks are placed into microtiterplates filled with 0.8% agar-agar and 2.5 ppm OPUS™. The leaf disks are sprayed with 2.5 μl of the test solution and 5 to 8 adult aphids are placed into the microtiterplates which are then closed and kept at 22-24° C. and 35-45% under fluorescent light for 6 days. Mortality is assessed on the basis of vital, reproduced aphids. Tests are replicated 2 times.
as §2, §3

[5] = 0 + 0.3 ppm (compound I-1 alone)
[6] = 0 + 0.1 ppm (compound I-1 alone)
[7] = 0 + 100 ppm (compound I-1 alone)

For `CC(C)c1cc(Oc2ccccc2)cc(C(C)C)c1NC(=S)NC(C)(C)C` [diafenthiuron], which “Average Control %” value ([1]; 300 + 0 ppm (diafenthiuron alone)) is on record?
The value was 0%.

Which “Average Control %” value ([2]; 10 + 0 ppm (buprofezine alone)) does the source give for `CC(C)N1C(=O)N(c2ccccc2)CS/C1=N\C(C)(C)C` [buprofezine] here?
The value was 0%.

What about the “Average Control %” value ([3]; 3 + 0 ppm (buprofezine alone)) of the same molecule?
Its value is 0%.

For `N#CC(C#N)(CCC(F)(F)F)CC(F)(F)C(F)(F)C(F)(F)C(F)F` [compound I-1, 2-(2,2,3,3,4,4,5,5-octafluoro-pentyl)-2-(3,3,3-trifluoro-propyl)-malononitrile], which “Average Control %” value [1, 5] is on record?
The value was 0%.

What about the “Average Control %” value [2, 6] of the same molecule?
The value was 0%.

What about the “Average Control %” value [2, 5] of the same molecule?
The value was 0%.

And the “Average Control %” value ([2]; 0 + 3 ppm (compound I-1 alone))?
The value was 0%.

What about the “Average Control %” value [4, 6] of the same molecule?
Its value is 0%.

What about the “Average Control %” value [4, 7] of the same molecule?
The value was 0%.

And the “Average Control %” value [3, 6]?
The value was 0%.

What about the “Average Control %” value ([3]; 0 + 30 ppm (compound I-1 alone)) of the same molecule?
Its value is 0%.

What about the “Average Control %” value [3, 7] of the same molecule?
Its value is 0%.

Which “Average Control %” value ([2]; 3 + 0 ppm (imidacloprid alone)) does the source give for `O=[N+]([O-])NC1=NCCN1Cc1ccc(Cl)nc1` [imidacloprid] here?
The value was 0%.

Which “Average Control %” value ([4]; 300 + 0 ppm (spinosad alone)) does the source give for spinosad here?
The value was 0%.

And the “Average Control %” value ([3]; 0.3 + 0 ppm (spinosad alone))?
The value was 0%.

What does the source list for `N#Cc1nn(-c2c(Cl)cc(C(F)(F)F)cc2Cl)c(N)c1[S+]([O-])C(F)(F)F` (stereo not drawn) [fipronil]?
Average Control % ([2]; 1 + 0 ppm (fipronil alone)): 0%; Average Control % ([4]; 3 + 0 ppm (fipronil alone)): 50%; Average Control % ([3]; 1 + 0 ppm (fipronil alone)): 0%
